Data published in patent publication US20200079758A1, “[4-(PHENYLSULFONYL)PIPERAZIN-1-YL](1H-1,2,3-TRIAZOL-4-YL)METHANONES” (priority 2016, published 2020).

Target: T1, recombinant human AKR1C3 (Homo sapiens, UniProt P42330)
T1 construct: GST (cleaved yes); made in house; host or cells: E. coli
T1 sequence (P42330 1-323): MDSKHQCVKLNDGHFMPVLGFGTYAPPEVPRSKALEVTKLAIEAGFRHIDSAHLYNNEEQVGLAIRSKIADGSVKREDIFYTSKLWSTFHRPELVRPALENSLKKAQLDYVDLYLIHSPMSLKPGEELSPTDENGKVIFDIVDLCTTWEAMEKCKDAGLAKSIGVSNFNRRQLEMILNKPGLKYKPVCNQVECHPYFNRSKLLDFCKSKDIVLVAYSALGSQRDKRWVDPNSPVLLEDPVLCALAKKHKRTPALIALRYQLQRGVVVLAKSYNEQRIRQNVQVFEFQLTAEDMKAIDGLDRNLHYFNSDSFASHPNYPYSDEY
Assay: AKR1C3-inhibitory activity assay (generation of Coumberol from Coumberone)
Format: biochemical
Conditions: Coumberone 0.3 μM, NADPH 10 μM, 22° C., typically 90 min, average or median values
Method in brief: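 Recombinant human AKR1C3 (E. coli GST fusion, GST removed; ~1 nM) preincubated 15 min with compound, then NADPH 10 μM and Coumberone 0.3 μM (final), 22 °C, typically 90 min, in 50 mM K-phosphate pH 7. Stopped with EM-1404 (1 μM final); Coumberol fluorescence read at 520 nm (ex 380 nm), normalized to no-inhibitor and no-enzyme controls.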

SMILES	IC50
COc1ccccc1S(=O)(=O)N1CCN(C(=O)c2cnn[nH]2)CC1(C)C [Example 130, {4-[(2-methoxyphenyl)sulfonyl]-3,3-dimethylpiperazin-1-yl}(1H-1,2,3-triazol-5-yl)methanone]	38 nM
COC(=O)c1cccc(S(=O)(=O)N2CCN(C(=O)c3cnn[nH]3)CC2(C)C)c1 [Example 131, methyl 3-{[2,2-dimethyl-4-(1H-1,2,3-triazol-5-ylcarbonyl)piperazin-1-yl]sulfonyl}benzoate]	204 nM
CC1(C)CN(C(=O)c2cnn[nH]2)CCN1S(=O)(=O)c1ccc2c(c1)OCO2 [Example 132, [4-(1,3-benzodioxol-5-ylsulfonyl)-3,3-dimethylpiperazin-1-yl](1H-1,2,3-triazol-5-yl)methanone]	22 nM
COc1cc(C)ccc1S(=O)(=O)N1CCN(C(=O)c2cnn[nH]2)CC1(C)C [Example 133, {4-[(2-methoxy-4-methylphenyl)sulfonyl]-3,3-dimethylpiperazin-1-yl}(1H-1,2,3-triazol-5-yl)methanone]	16 nM
CC1(C)CN(C(=O)c2cnn[nH]2)CCN1S(=O)(=O)c1cccc(F)c1Cl [Example 137, {4-[(2-chloro-3-fluorophenyl)sulfonyl]-3,3-dimethylpiperazin-1-yl}(1H-1,2,3-triazol-5-yl)methanone]	19 nM
COc1cc(F)ccc1S(=O)(=O)N1CCN(C(=O)c2cnn[nH]2)CC1(C)C [Example 138, {4-[(4-fluoro-2-methoxyphenyl)sulfonyl]-3,3-dimethylpiperazin-1-yl}(1H-1,2,3-triazol-5-yl)methanone]	23 nM
COc1ccc(C#N)cc1S(=O)(=O)N1CCN(C(=O)c2cnn[nH]2)CC1(C)C [Example 139, 3-{[2,2-dimethyl-4-(1H-1,2,3-triazol-5-ylcarbonyl)piperazin-1-yl]sulfonyl}-4-methoxybenzonitrile]	285 nM

Stronger by IC50, values ahead:

IC50	SMILES
7 nM	CC1(C)CN(C(=O)c2cnn[nH]2)CCN1S(=O)(=O)c1cccc(Cl)c1C#N [Example 134, 2-chloro-6-{[2,2-dimethyl-4-(1H-1,2,3-triazol-5-ylcarbonyl)piperazin-1-yl]sulfonyl}benzonitrile]
6 nM	Cc1ccc(Cl)cc1S(=O)(=O)N1CCN(C(=O)c2cnn[nH]2)CC1(C)C [Example 129, {4-[(5-chloro-2-methylphenyl)sulfonyl]-3,3-dimethylpiperazin-1-yl}(1H-1,2,3-triazol-5-yl)methanone]
5 nM	CC1(C)CN(C(=O)c2cnn[nH]2)CCN1S(=O)(=O)c1cc(F)ccc1Cl [Example 136, {4-[(2-chloro-5-fluorophenyl)sulfonyl]-3,3-dimethylpiperazin-1-yl}(1H-1,2,3-triazol-5-yl)methanone]
4 nM	CC1(C)CN(C(=O)c2cnn[nH]2)CCN1S(=O)(=O)c1cccc2c1OCC2 [Example 135, [4-(2,3-dihydro-1-benzofuran-7-ylsulfonyl)-3,3-dimethylpiperazin-1-yl](1H-1,2,3-triazol-5-yl)methanone]
2 nM	Cc1cc(Cl)cc(S(=O)(=O)N2CCN(C(=O)c3cnn[nH]3)CC2(C)C)c1 [Example 140, {4-[(3-chloro-5-methylphenyl)sulfonyl]-3,3-dimethylpiperazin-1-yl}(1H-1,2,3-triazol-5-yl)methanone]
